Consider 28 compounds from patent US20100015141A1, “4-PHENOXY-6-ARYL-1H-PYRAZOLO[3,4-D]PYRIMIDINE AND N-ARYL-6-ARYL-1H-PYRAZOLO[3,4-D]PYRIMIDIN-4-AMINE COMPOUNDS, THEIR USE AS MTOR KINASE AND PI3 KINASE INHIBITORS, AND THEIR SYNTHESES” (Wyeth, priority 2008, published 2010).

One test deals with PI3K-α (Homo sapiens, UniProt P42336). Kind of test: PI3K-alpha fluorescence polarization assay. The format is biochemical. The settings on record: 20 μM PIP2, 25 μM ATP. As for the experimental part:
(§1) The reaction buffer was 20 mM HEPES pH7.5, 2 mM MgCl2, 0.05% CHAPS, and 0.01% βME (added fresh). The substrate solution was 40 μM PIP2 (diC8, Echelon, Salt Lake City Utah cat #P-4508, 1 mM in water) and 50 μM ATP in the reaction buffer. Nunc 384-well black polypropylene fluorescent plates were used for PI3K assays. The assay is run by putting 9.5 μl of freshly diluted enzyme in the reaction buffer per well, adding 0.5 μl of diluted drug or DMSO, and mixing. Then 10 μl of the substrate solution is added to each well to start the reaction. A final concentration of 20 μM PIP2 and 25 μM ATP in the reaction was used. Reactions were allowed to proceed for 30-60 minutes at room temperature. After 30-60 minutes, 20 μl of a solution of 10 nM TAMRA detector (Red detector probe-Echelon) and 2.5 uM of GST-murineGRP (1.5 mg/ml in 17% glycerol) was added per well to stop the reaction. The resulting solution was mixed well and allowed to stand for 90-110 minutes before reading plate. Assay Plates were read on Perkin-Elmer Envision plate readers with appropriate filters for Tamra [BODIPY-TMRI(1,3,4,5)P4]. Data obtained were used to calculate enzymatic activity and enzyme inhibition by inhibitor compounds. It is important to keep Red probe solutions dark. This procedure is adapted from Echelon Biosciences Inc procedure for their PI3-Kinase fluorescence polarization activity Assay kit Product number K-1100.

A further test has as its target PI3K-γ (Homo sapiens, UniProt P48736). Kind of test: PI3K-gamma fluorescence polarization assay. The format is biochemical. The settings on record: 20 μM PIP2, 25 μM ATP. The method, then:
as §1
On the technique in general: Polarisation of emitted light reports the rotation of a fluorescent probe.

pIC50: −log10 of the molar value.

Chain of PI3K-α (P42336 whole entry, species assumed): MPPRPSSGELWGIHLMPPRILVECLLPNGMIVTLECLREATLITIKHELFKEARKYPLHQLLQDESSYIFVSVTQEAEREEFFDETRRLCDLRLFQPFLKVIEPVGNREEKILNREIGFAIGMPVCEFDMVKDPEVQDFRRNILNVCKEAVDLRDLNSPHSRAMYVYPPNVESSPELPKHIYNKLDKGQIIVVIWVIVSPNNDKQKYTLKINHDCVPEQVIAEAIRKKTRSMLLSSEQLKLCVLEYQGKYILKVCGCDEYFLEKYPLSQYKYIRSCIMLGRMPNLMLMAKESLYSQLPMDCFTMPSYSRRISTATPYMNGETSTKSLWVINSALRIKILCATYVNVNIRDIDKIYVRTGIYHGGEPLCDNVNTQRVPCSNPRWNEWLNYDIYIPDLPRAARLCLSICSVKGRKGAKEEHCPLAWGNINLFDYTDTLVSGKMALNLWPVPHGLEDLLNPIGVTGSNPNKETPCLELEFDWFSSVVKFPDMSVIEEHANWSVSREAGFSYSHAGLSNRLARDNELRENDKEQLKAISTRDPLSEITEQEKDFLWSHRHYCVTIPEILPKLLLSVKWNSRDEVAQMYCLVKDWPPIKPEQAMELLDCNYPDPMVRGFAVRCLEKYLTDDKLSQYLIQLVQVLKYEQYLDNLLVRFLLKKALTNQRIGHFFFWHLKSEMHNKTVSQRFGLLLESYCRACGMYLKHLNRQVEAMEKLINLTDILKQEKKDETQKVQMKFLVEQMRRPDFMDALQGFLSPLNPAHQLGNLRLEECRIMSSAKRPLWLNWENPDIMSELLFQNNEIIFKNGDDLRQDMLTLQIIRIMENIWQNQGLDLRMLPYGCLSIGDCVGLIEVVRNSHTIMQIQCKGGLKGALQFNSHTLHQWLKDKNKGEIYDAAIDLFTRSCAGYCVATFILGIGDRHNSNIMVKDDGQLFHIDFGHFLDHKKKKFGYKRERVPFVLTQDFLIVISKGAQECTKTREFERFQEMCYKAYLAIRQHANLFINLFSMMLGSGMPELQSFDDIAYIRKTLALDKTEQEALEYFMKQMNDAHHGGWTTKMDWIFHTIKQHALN
Chain of PI3K-α (P27986 whole entry partner, species assumed): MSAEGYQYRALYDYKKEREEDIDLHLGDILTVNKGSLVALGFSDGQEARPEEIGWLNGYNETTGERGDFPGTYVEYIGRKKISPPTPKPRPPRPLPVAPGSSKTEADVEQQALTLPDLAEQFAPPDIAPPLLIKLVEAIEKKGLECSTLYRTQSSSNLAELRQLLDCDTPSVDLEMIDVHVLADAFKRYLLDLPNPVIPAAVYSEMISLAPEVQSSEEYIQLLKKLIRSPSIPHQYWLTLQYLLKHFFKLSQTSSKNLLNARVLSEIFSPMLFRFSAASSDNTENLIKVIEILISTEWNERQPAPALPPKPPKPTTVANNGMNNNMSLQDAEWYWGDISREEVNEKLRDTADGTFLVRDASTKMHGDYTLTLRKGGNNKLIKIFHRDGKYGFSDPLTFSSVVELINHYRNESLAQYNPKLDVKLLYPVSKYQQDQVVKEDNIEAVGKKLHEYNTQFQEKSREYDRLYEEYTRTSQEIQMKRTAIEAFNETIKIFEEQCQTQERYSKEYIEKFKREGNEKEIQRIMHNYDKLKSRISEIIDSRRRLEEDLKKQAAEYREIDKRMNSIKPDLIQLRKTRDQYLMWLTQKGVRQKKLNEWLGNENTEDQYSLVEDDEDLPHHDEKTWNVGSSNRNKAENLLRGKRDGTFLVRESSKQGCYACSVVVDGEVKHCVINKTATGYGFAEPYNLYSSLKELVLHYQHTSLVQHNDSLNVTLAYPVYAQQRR
Chain of PI3K-γ (P48736 whole entry, species assumed): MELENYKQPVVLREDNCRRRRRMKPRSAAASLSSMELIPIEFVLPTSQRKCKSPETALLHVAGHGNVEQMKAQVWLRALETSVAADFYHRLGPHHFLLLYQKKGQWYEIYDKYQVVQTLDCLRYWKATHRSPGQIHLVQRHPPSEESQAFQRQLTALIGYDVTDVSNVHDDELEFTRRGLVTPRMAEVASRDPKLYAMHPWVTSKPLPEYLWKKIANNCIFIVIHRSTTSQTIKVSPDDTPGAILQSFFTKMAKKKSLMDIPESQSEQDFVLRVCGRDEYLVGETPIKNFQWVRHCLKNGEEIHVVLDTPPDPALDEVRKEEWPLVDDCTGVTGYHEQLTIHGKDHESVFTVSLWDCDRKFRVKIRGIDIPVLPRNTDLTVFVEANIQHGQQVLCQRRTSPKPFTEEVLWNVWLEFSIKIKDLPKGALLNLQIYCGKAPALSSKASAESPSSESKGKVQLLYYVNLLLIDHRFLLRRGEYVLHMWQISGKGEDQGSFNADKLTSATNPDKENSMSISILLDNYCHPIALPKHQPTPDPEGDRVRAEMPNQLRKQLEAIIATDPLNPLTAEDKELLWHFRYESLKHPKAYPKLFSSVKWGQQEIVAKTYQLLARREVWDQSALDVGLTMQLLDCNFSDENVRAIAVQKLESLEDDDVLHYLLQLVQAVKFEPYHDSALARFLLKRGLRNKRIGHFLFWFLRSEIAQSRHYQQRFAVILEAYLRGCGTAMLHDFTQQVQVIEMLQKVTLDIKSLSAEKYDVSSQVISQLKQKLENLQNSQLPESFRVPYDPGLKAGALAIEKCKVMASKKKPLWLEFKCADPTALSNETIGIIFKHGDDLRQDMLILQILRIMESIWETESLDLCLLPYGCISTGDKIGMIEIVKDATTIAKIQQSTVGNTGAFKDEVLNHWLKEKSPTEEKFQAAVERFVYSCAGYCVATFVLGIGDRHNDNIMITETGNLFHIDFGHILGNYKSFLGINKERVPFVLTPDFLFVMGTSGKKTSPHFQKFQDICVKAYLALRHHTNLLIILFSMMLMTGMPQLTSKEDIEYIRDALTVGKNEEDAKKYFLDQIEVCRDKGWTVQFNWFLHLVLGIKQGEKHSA

What is called pIC50 is the negative decadic logarithm of the IC50, by convention in mol/L. Read a high pIC50 as a low IC50. Consider `NC(=O)c1ccc(Nc2nc(-c3ccccc3)nc3c2cnn3C2CCN(Cc3ccccc3)CC2)cc1` [Example 1, 4-{[1-(1-benzylpiperidin-4-yl)-6-phenyl-1H-pyrazolo[3,4-d]pyrimidin-4-yl]amino}benzamide], for which the negative logarithm of the IC50 (pIC50) is 5.21 at PI3K-α and 5.15 on PI3K-γ.

On to `COc1ccc(Nc2nc(-c3ccccc3)nc3c2cnn3C2CCN(Cc3ccccc3)CC2)cc1OC` [Example 2, 1-(1-benzylpiperidin-4-yl)-N-(3,4-dimethoxyphenyl)-6-phenyl-1H-pyrazolo[3,4-d]pyrimidin-4-amine], for which the pIC50 was below 5.00 against PI3K-α and 5.29 against PI3K-γ.

With `NC(=O)c1cccc(Nc2nc(-c3ccccc3)nc3c2cnn3C2CCN(Cc3ccccc3)CC2)c1` [Example 3, 3-{[1-(1-benzylpiperidin-4-yl)-6-phenyl-1H-pyrazolo[3,4-d]pyrimidin-4-yl]amino}benzamide], the negative logarithm of the IC50 (pIC50) on PI3K-α was 5.14; against PI3K-γ, 5.30.

As for `c1ccc(CN2CCC(n3ncc4c(Nc5ccc6[nH]ccc6c5)nc(-c5ccccc5)nc43)CC2)cc1` [Example 4, 1-(1-benzylpiperidin-4-yl)-N-1H-indol-5-yl-6-phenyl-1H-pyrazolo[3,4-d]pyrimidin-4-amine], the pIC50 on PI3K-α is below 5.00; on PI3K-γ, 4.99.

As to `CC(=O)Nc1cccc(Nc2nc(-c3ccccc3)nc3c2cnn3C2CCN(Cc3ccccc3)CC2)c1` [Example 5, N-(3-{[1-(1-benzylpiperidin-4-yl)-6-phenyl-1H-pyrazolo[3,4-d]pyrimidin-4-yl]amino}phenyl)acetamide], the negative-log IC50 (pIC50) at PI3K-α is 5.08; against PI3K-γ it was 5.15.

As to `NC(=O)c1ccc(Nc2nc(-c3cccc(O)c3)nc3c2cnn3C2CCN(Cc3ccccc3)CC2)cc1` [Example 6, 4-{[1-(1-benzylpiperidin-4-yl)-6-(3-hydroxyphenyl)-1H-pyrazolo[3,4-d]pyrimidin-4-yl]amino}benzamide], the pIC50 was 5.46 against PI3K-α and 5.15 against PI3K-γ.

On to `COc1ccc(Nc2nc(-c3cccc(O)c3)nc3c2cnn3C2CCN(Cc3ccccc3)CC2)cc1OC` [Example 7, 3-{1-(1-benzylpiperidin-4-yl)-4-[(3,4-dimethoxyphenyl)amino]-1H-pyrazolo[3,4-d]pyrimidin-6-yl}phenol], for which the results for the pIC50 against PI3K-α and on PI3K-γ were below 5.00 and 5.23, respectively.

Take `NC(=O)c1cccc(Nc2nc(-c3cccc(O)c3)nc3c2cnn3C2CCN(Cc3ccccc3)CC2)c1` [Example 8, 3-{[1-(1-benzylpiperidin-4-yl)-6-(3-hydroxyphenyl)-1H-pyrazolo[3,4-d]pyrimidin-4-yl]amino}benzamide]: the negative logarithm of the IC50 (pIC50) against PI3K-α is 5.22; on PI3K-γ, 5.15.

As for `Oc1cccc(-c2nc(Nc3ccc4[nH]ccc4c3)c3cnn(C4CCN(Cc5ccccc5)CC4)c3n2)c1` [Example 9, 3-[1-(1-benzylpiperidin-4-yl)-4-(1H-indol-5-ylamino)-1H-pyrazolo[3,4-d]pyrimidin-6-yl]phenol], the results for the pIC50 against PI3K-α and at PI3K-γ were below 5.00 and 4.88, respectively.

In the case of `CC(=O)Nc1cccc(Nc2nc(-c3cccc(O)c3)nc3c2cnn3C2CCN(Cc3ccccc3)CC2)c1` [Example 10, N-(3-{[1-(1-benzylpiperidin-4-yl)-6-(3-hydroxyphenyl)-1H-pyrazolo[3,4-d]pyrimidin-4-yl]amino}phenyl)acetamide], the pIC50 at PI3K-α was 5.21; against PI3K-γ it was 5.33.

As for `COc1ccc(Nc2nc(-c3ccccc3)nc3c2cnn3C2CCNCC2)cc1OC` [Example 13, N-(3,4-dimethoxyphenyl)-6-phenyl-1-piperidin-4-yl-1H-pyrazolo[3,4-d]pyrimidin-4-amine], the negative logarithm of the IC50 (pIC50) is below 5.00 against PI3K-α and 5.11 at PI3K-γ.

On to `CC(=O)Nc1cccc(Nc2nc(-c3ccccc3)nc3c2cnn3C2CCNCC2)c1` [Example 15, N-{3-[(6-phenyl-1-piperidin-4-yl-1H-pyrazolo[3,4-d]pyrimidin-4-yl)amino]phenyl}acetamide], for which the pIC50 on PI3K-α is below 5.00; on PI3K-γ, 5.08.

For `COc1ccc(Nc2nc(-c3cccc(O)c3)nc3c2cnn3C2CCNCC2)cc1OC` [Example 17, 3-{4[(3,4-dimethoxyphenyl)amino]-1-piperidin-4-yl-1H-pyrazolo[3,4-d]pyrimidin-6-yl}phenol], the results for the pIC50 against PI3K-α and at PI3K-γ were below 5.00 and 5.23, respectively.

`NC(=O)c1cccc(Nc2nc(-c3cccc(O)c3)nc3c2cnn3C2CCNCC2)c1` [Example 18, 3-{[6-(3-hydroxyphenyl)-1-piperidin-4-yl-1H-pyrazolo[3,4-d]pyrimidin-4-yl]amino}benzamide]: the pIC50 against PI3K-α was below 5.00; against PI3K-γ it was 5.01.

Take `Oc1cccc(-c2nc(Nc3ccc4[nH]ccc4c3)c3cnn(C4CCNCC4)c3n2)c1` [Example 19, 3-[4-(1H-indol-5-ylamino)-1-piperidin-4-yl-1H-pyrazolo[3,4-d]pyrimidin-6-yl]phenol]: the pIC50 against PI3K-α is below 5.00; against PI3K-γ, 5.23.

As for `NC(=O)c1ccc(Nc2nc(-c3cccc([N+](=O)[O-])c3)nc3c2cnn3C2CCN(Cc3ccccc3)CC2)cc1` [Example 21, 4-{[1-(1-benzylpiperidin-4-yl)-6-(3-nitrophenyl)-1H-pyrazolo[3,4-d]pyrimidin-4-yl]amino}benzamide], the pIC50 was 5.55 against PI3K-α and 5.61 on PI3K-γ.

As for `COc1cccc(-c2nc(Nc3ccc(C(N)=O)cc3)c3cnn(C4CCN(Cc5ccccc5)CC4)c3n2)c1` [Example 23, 4-{[1-(1-benzylpiperidin-4-yl)-6-(3-methoxyphenyl)-1H-pyrazolo[3,4-d]pyrimidin-4-yl]amino}benzamide], the values for the pIC50 at PI3K-α and at PI3K-γ were 5.58 and 5.56, respectively.

Turning to `NC(=O)c1ccc(Nc2nc(-c3ccc(O)cc3)nc3c2cnn3C2CCN(Cc3ccccc3)CC2)cc1` [Example 24, 4-{[1-(1-benzylpiperidin-4-yl)-6-(4-hydroxyphenyl)-1H-pyrazolo[3,4-d]pyrimidin-4-yl]amino}benzamide], the pIC50 on PI3K-α is 5.26; against PI3K-γ it was 5.28.

As to `NC(=O)c1ccc(Nc2nc(-c3cccc(C(F)(F)F)c3)nc3c2cnn3C2CCN(Cc3ccccc3)CC2)cc1` [Example 25, 4-({1-(1-benzylpiperidin-4-yl)-6-[3-(trifluoromethyl)phenyl]-1H-pyrazolo[3,4-d]pyrimidin-4-yl}amino)benzamide], the negative-log IC50 (pIC50) on PI3K-α was 5.46; against PI3K-γ, 5.65.

As for `NC(=O)c1ccc(Nc2nc(-c3ccccc3O)nc3c2cnn3C2CCN(Cc3ccccc3)CC2)cc1` [Example 26, 4-{[1-(1-benzylpiperidin-4-yl)-6-(2-hydroxyphenyl)-1H-pyrazolo[3,4-d]pyrimidin-4-yl]amino}benzamide], the pIC50 against PI3K-α was 5.65; against PI3K-γ, 5.40.

For the compound `COc1ccc(Nc2nc(-c3ccc(O)cc3)nc3c2cnn3C2CCN(Cc3ccccc3)CC2)cc1OC` [Example 30, 4-{1-(1-benzylpiperidin-4-yl)-4-[(3,4-dimethoxyphenyl)amino]-1H-pyrazolo[3,4-d]pyrimidin-6-yl}phenol], the negative logarithm of the IC50 (pIC50) at PI3K-α is below 5.23; on PI3K-γ, 5.48.

The compound `COc1ccc(N(C)c2nc(-c3ccccc3)nc3c2cnn3C)cc1OC` [Example 36, N-(3,4-dimethoxyphenyl)-N,1-dimethyl-6-phenyl-1H-pyrazolo[3,4-d]pyrimidin-4-amine] had a negative-log IC50 (pIC50) at PI3K-α below 5.01.

Turning to `CN(C)c1ccc(-c2nc(Oc3ccc4[nH]ccc4c3)c3cnn(C)c3n2)cc1` [Example 40, 4-[4-(1H-indol-5-yloxy)-1-methyl-1H-pyrazolo[3,4-d]pyrimidin-6-yl]-N,N-dimethylaniline], the negative logarithm of the IC50 (pIC50) on PI3K-α is 5.42; on PI3K-γ, below 5.00.

As to `Cn1ncc2c(Oc3ccc4[nH]ccc4c3)nc(-c3cccc(C(F)(F)F)c3)nc21` [Example 42, 4-(1H-indol-5-yloxy)-1-methyl-6-[3-(trifluoromethyl)phenyl]-1H-pyrazolo[3,4-d]pyrimidine], the pIC50 against PI3K-α was 5.92; against PI3K-γ, 6.02.

As for `Cn1ncc2c(Oc3ccc4[nH]ccc4c3)nc(-c3cccc(-c4ccccc4)c3)nc21` [Example 44, 6-biphenyl-3-yl-4-(1H-indol-5-yloxy)-1-methyl-1H-pyrazolo[3,4-d]pyrimidine], the negative-log IC50 (pIC50) was 5.54 on PI3K-α and below 5.00 at PI3K-γ.

With `COc1ccc(Oc2nc(-c3ccc(N(C)C)cc3)nc3c2cnn3C)cc1OC` [Example 47, 4-[4-(3,4-dimethoxyphenoxy)-1-methyl-1H-pyrazolo[3,4-d]pyrimidin-6-yl]-N,N-dimethylaniline], the values for the pIC50 at PI3K-α and on PI3K-γ were 5.22 and below 5.00, respectively.

Regarding `CC(=O)Nc1ccc(Oc2nc(-c3ccc(N(C)C)cc3)nc3c2cnn3C)cc1` [Example 51, N-[4-({6-[4-(dimethylamino)phenyl]-1-methyl-1H-pyrazolo[3,4-d]pyrimidin-4-yl}oxy)phenyl]acetamide], the negative logarithm of the IC50 (pIC50) at PI3K-α was 5.30; on PI3K-γ, below 5.00.

As to `CC(=O)Nc1ccc(Oc2nc(-c3cccc(C(F)(F)F)c3)nc3c2cnn3C)cc1` [Example 52, N-[4-({1-methyl-6-[3-(trifluoromethyl)phenyl]-1H-pyrazolo[3,4-d]pyrimidin-4-yl}oxy)phenyl]acetamide], the negative-log IC50 (pIC50) is 5.88 on PI3K-α and 4.98 against PI3K-γ.
